These results are taken from patent US20090075888A1, “Cardiovascular and Brain Cell Therapy Using Intracellular Ryanodine Receptor Modulation by the Estrogen Receptor Beta” (University of North Texas Health Science Center at Fort …, priority 2007, published 2009).

In this experiment the target is mouse brain RyR2 (Mus musculus, UniProt E9Q401). The experiment is described as follows: Single-channel current recordings of RyR2 incorporated in artificial lipid bilayer.
mouse brain RyR2, sequence (E9Q401 whole entry): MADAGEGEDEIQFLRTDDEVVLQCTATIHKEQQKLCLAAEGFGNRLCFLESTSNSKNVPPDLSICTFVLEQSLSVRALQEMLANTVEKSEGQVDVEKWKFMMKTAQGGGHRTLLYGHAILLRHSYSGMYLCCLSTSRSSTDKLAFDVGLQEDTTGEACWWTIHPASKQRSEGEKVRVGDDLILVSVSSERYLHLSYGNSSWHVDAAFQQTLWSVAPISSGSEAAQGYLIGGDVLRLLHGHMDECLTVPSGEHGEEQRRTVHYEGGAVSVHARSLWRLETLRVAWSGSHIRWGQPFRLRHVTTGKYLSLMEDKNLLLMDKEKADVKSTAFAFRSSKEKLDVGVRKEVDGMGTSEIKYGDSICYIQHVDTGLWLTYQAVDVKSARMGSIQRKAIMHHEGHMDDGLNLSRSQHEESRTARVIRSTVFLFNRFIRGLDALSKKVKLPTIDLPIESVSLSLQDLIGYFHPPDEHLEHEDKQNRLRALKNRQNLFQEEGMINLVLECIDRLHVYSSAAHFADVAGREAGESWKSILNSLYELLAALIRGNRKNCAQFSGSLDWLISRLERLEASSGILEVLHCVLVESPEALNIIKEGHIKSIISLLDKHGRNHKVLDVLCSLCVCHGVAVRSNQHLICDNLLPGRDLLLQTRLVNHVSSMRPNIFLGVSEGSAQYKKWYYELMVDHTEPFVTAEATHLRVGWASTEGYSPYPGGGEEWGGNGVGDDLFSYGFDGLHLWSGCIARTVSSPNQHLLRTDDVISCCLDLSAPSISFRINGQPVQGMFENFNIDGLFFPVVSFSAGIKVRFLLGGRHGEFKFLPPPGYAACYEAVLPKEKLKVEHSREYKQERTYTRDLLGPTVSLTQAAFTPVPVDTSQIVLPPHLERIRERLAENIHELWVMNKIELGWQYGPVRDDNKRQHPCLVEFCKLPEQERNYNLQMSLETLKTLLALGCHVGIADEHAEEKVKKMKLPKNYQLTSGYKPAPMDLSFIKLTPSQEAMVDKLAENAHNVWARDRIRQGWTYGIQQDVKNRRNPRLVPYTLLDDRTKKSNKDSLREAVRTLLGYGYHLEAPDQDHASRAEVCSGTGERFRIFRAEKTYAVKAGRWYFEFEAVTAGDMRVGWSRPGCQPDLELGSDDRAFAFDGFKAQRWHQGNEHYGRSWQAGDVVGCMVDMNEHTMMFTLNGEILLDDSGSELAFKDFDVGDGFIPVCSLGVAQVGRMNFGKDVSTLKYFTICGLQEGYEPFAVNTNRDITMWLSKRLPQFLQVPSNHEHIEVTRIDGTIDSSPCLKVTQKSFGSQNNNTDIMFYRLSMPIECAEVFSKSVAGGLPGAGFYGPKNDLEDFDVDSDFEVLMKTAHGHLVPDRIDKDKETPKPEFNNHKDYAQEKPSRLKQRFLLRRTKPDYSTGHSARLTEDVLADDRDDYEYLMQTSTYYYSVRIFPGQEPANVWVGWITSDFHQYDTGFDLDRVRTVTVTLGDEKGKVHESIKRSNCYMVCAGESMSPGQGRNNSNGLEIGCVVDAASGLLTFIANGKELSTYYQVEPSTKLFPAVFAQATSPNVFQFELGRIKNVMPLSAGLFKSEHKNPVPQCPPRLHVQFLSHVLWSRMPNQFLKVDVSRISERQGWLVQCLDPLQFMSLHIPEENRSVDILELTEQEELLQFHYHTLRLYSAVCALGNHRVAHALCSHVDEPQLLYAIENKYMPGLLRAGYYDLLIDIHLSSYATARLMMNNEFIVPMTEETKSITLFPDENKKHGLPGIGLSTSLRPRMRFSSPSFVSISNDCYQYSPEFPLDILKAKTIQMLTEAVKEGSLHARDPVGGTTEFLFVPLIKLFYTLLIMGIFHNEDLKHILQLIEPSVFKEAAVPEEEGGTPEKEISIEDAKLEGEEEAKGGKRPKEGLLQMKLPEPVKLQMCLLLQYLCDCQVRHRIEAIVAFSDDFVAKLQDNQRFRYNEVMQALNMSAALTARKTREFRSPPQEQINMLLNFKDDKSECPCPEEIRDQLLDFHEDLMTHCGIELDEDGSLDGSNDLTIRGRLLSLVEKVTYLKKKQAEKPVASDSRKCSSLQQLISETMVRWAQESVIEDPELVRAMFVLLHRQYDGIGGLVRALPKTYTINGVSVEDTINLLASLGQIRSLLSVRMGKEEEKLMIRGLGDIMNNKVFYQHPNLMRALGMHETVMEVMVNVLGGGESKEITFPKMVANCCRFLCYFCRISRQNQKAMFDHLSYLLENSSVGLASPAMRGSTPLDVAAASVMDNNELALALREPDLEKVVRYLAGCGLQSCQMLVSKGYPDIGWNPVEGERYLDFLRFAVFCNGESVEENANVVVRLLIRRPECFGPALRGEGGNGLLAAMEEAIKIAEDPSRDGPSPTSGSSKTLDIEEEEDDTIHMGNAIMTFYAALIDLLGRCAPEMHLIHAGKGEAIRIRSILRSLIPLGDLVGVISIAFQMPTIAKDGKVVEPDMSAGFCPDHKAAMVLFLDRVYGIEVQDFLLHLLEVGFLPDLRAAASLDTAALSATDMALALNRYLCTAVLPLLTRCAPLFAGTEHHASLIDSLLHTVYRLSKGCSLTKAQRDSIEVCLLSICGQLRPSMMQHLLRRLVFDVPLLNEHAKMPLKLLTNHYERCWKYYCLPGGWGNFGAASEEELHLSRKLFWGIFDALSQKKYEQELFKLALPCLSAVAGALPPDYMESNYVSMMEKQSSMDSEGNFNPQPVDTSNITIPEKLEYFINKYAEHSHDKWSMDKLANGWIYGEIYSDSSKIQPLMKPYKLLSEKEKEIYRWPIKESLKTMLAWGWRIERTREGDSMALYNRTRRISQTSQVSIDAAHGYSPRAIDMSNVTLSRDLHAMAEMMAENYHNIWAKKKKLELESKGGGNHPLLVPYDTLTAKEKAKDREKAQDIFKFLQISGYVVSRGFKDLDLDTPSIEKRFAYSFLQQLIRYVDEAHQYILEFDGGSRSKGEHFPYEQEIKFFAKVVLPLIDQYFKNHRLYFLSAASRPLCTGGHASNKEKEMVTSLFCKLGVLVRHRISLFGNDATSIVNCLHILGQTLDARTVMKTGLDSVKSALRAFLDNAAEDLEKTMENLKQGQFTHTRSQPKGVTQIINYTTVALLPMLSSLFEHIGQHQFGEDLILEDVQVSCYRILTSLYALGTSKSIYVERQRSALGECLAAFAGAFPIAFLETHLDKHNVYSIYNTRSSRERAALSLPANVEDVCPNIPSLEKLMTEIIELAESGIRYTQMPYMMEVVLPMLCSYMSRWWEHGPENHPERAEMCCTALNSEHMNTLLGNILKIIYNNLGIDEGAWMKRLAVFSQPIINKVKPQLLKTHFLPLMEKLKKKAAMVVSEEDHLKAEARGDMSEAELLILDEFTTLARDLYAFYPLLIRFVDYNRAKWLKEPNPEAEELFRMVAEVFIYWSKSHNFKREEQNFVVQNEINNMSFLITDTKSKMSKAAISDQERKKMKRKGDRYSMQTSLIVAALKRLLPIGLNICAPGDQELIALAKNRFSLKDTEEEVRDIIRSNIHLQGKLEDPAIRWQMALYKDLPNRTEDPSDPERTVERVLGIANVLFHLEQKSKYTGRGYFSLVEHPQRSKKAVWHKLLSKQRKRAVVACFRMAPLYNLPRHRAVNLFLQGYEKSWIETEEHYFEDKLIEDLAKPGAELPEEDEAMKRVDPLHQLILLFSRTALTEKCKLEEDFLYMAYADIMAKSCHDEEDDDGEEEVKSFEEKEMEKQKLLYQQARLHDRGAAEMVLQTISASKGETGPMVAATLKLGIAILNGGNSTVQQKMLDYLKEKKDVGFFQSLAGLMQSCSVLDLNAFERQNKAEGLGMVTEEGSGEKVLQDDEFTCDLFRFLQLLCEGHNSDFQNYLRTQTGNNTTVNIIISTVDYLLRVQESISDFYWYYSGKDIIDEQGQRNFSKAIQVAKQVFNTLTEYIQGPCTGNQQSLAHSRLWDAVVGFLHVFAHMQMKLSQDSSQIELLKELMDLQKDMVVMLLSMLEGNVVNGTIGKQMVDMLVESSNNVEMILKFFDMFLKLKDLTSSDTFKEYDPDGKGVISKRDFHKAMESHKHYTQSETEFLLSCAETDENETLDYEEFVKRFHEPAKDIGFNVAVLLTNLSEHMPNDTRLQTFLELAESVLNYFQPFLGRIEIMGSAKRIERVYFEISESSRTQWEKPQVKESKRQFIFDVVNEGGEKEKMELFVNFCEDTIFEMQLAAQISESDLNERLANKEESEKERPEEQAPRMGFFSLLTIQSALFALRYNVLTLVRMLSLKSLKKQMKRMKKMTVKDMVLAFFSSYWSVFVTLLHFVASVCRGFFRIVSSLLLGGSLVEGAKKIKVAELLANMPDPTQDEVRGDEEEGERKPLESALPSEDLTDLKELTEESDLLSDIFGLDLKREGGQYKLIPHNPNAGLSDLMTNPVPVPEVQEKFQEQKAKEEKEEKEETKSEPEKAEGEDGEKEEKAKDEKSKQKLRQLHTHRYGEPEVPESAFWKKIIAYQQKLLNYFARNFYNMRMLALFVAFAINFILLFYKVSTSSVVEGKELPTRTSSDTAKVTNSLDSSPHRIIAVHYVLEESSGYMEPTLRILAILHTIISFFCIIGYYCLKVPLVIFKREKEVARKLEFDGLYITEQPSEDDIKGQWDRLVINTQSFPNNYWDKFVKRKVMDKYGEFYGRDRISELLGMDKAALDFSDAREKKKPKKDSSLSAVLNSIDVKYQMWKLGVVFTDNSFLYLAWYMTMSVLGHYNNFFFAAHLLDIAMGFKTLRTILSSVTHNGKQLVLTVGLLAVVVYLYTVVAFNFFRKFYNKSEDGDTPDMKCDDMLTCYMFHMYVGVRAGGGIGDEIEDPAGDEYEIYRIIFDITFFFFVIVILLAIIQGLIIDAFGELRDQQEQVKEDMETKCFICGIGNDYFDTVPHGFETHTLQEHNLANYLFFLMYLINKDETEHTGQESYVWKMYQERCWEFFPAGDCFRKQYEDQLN

For the compound `N.N.N.N.N.N.N.N.N.N.N.N.N.N.[Cl-].[Cl-].[Cl-].[Cl-].[Cl-].[Cl-].[O-2].[O-2].[Ru+3].[Ru+3].[Ru+4]` [Ruthenium Red], the “block of ERβ-activated RyR2 single channel currents” value (20 μM Ruthenium Red after ERβ (FIG. 1A)) is on record as “blocked”. Moreover, the RyR channel block result (25 μM ruthenium red after ERβ (FIG. 10A, 11A)) is recorded as “complete channel block”.
